Read-outs that look alike come from different tables or passages of the source.
Assays:
[1] = test system: DIM resistant L. donovani promastigotes (DR50); assay: Cell viability assay, DIM resistant promastigotes; type: cell-based; conditions: Leishmania donovani, 12 h, read-out: growth inhibited
Description: (§1) L. donovani strain AG83 and DIM resistant parasite DR50 promastigotes were grown at 22°C in M199 liquid media supplemented with 10% FBS as described. Axenic amastigotes were cultured in modified M199 medium (pH 5.3) supplemented with 10 mM sodium succinate, 40 mM HEPES and 25% FCS and maintained at 37°C with 5% CO2.The effect of drugs on the viability of Leishmania parasites was determined by direct microscopic counting using light microscope (40× objective) in a haemocytometer. The cells at the exponential phase were collected and transferred into 24-well plate (3.5×10^6 cells per well). The cells were then incubated for 12 h in the presence of various concentrations of DIM, DPDIM, DMDIM and DMODIM (1, 5, 10, 20 and 50 µM). For other experiments, 10^4 cells were taken and grown in presence of the respective derivatives for a period of 30 days. For each 5 day interval, a small amount of aliquots were taken out. After incubation the cells were centrifuged and cell pellet was washed with PBS (1×) twice and finally suspended in 1 ml PBS (1×). Fifty µl of aliquot was taken, mixed with 0.4% trypan blue solution and incubated for 3 min at 22°C. One drop of the mixture was transferred to haemocytometer and the clear (live) and blue (dead) cells were counted. The total number of viable cells in aliquot was calculated by multiplying the total number of viable cells by 2 (the dilution factor for trypan blue). To obtain the total number of cells in the aliquot, total number of viable and nonviable cells were added up and multiplied by 2. Percentages of viable cells were calculated using the formula: [drawing 1]
(§2) The effects of different derivatives of DIM on cell proliferation were tested by incubating wild type and DIM resistant L. donovani promastigotes (3.5×10^6 cells/ml) with the drugs. […] The number of live promastigotes was measured by differential staining of live and dead cells using light microscope under 40× objective (Fig. 2). […]
(§3) Figure 2 Effect of DIM-derivatives on Leishmania parasites. Growth of L. donovani AG83 promastigotes (A) and DIM resistant promastigotes (B) were monitored in presence of increasing concentrations (1, 5, 10, 20 and 50 µM) of DIM, DPDIM, DMDIM and DMODIM for 12 h. […] Change in IC50 values after a prolong exposure to DIM derivatives (C) has been assessed as described in Materials and Methods. After every 5 day a small aliquot was taken out and number of viable promastigotes was counted for each concentration. IC50 values have been determined from them using Graph Pad Prsim ver 5.0 software and a graphical plot was generated over time. Growth of the parasites treated with the compounds was expressed as percentage of the viable promastigotes compared with that of control. […]

[2] = test system: L. donovani AG83 promastigotes; assay: Cell viability assay, wild type promastigotes; type: cell-based; conditions: Leishmania donovani, 12 h, read-out: growth inhibited
Description: as §1, §2, §3

[3] = test system: L. donovani topoisomerase I; assay: Immunoband depletion assay, topoisomerase I; type: cell-based, Leishmania donovani; conditions: 20 µM, 6 h incubation, promastigotes
Description: Leishmania cells (3×10^7) were cultured in absence and presence of the drugs. Nuclear fractions were isolated as described. Briefly, cells were suspended in hypotonic buffer (10 mM Tris-HCl, pH 7.5, 1 mM EDTA, 0.1 mM EGTA, 1 mM PMSF, 1 mM benzamidine hydrochloride and 5 mM DTT) and homogenized. The homogenate was centrifuged for 10 min at 10,000 g. The pellets were washed and used as the source of nuclear fraction. Thereafter, the nuclear fractions were lysed with 1% SDS and subjected to SDS-PAGE (10%). The proteins were electrophoretically transferred to nitrocellulose membranes and immumobloting of immobilized proteins were carried out using a rabbit polyclonal antibody raised against LdTOP1S for topoisomerase I and ATPase domain of L. donovani topoisomerase II [8].
We have reported earlier that DIM induces topoisomerase I and not topoisomerase II-mediated cleavable complex formation in L. donovani. To investigate the ability of DIM derivatives to induce in vivo covalent complex formation between topoisomerase I and DNA in the Leishmania parasites we performed the immunoband depletion experiments with L. donovani promastigotes. Nuclear fractions were prepared from untreated as well as drug-treated promastigotes and subjected to SDS-PAGE. If topoisomerase I can form a covalent complex with genomic DNA inside the cells, then topoisomerase I-DNA cleavable complex cannot enter into the gel. […] The presence of topoisomerase I was detected by immunoblotting as described in ‘Materials and Methods’. It was observed that the immunoband of topoisomerase I disappeared in presence of 20 µM of DIM, DPDIM, DMDIM and DMODIM for 6 h incubation respectively (lanes 2–5). […] It should be mentioned here that topoisomerase I of Leishmania is a heterodimer and the catalytic site (SKXXY) is present in the small subunit of enzyme (LdTOP1S), which is involved in the formation of topoisomerase I-DNA covalent complex. So we have used the antibody raised against the small subunit of L. donovani topoisomerase I to study the immunoband depletion assay.
Figure 6 DIM-derivatives induce in vivo formation of topoisomerase-DNA cleavable complex within the cells. Stabilization of topoisomerase-I mediated cleavable complex was determined by immunoband depletion assay. Top panel: Immunoband depletion of L. donovani topoisomerase I, using an antibody raised against […]. Leishmanial cells were treated with 0.2% DMSO alone (lane 1), 20 µM each of DIM (lane 2), DPDIM (lane 3), DMDIM (lane 4) and DMODIM (lane 5) respectively. Lanes 6–9, preincubation with 20 µM DHBA before treatment with DIM, DPDIM, DMDIM and DMODIM respectively. Bottom panel: β-tubulin loading control.

Row | Structure (SMILES) | inhibition at 20 µM [1] [%] | inhibition at 20 µM [2] [%] | immunoband of topoisomerase I [3] | inhibition at 20 µM ([2]; 20 µM, wild type AG83 promastigotes) [%]
1 | Cc1[nH]c2ccccc2c1Cc1c(C)[nH]c2ccccc12 [DMDIM, 2,2′-dimethyl 3,3′-diindolyl methane] | 85 | 83 | disappeared | 
2 | c1ccc2c(Cc3c[nH]c4ccccc34)c[nH]c2c1 [DIM, 3, 3′-diindolyl methane, reference compound] | 20 |  | disappeared | 88
3 | COc1ccc2[nH]cc(Cc3c[nH]c4ccc(OC)cc34)c2c1 [DMODIM, 5,5′-dimethoxy 3,3′-diindolyl methane] | 65 | 70 | disappeared | 
4 | c1ccc(-c2[nH]c3ccccc3c2Cc2c(-c3ccccc3)[nH]c3ccccc23)cc1 [DPDIM, 2,2′-diphenyl 3,3′-diindolyl methane] | 90 | 96 | disappeared | 
